Experiments:
[1] = AUC (0 to infinity) in mouse at 5 mg/kg, iv; assay type: ADME, organism-based; design: time infinity, dose 5 mg/kg, route intravenous; details: plasma
[2] = Drug level in plasma of nude mouse bearing human MDA-MB-361 cells at 25 mg/kg, iv after 8 hrs; assay type: ADME, organism-based; design: dose 25 mg/kg, route intravenous; details: read-out: Drug uptake
[3] = Volume of distribution in mouse at 5 mg/kg, iv; assay type: ADME, organism-based; design: dose 5 mg/kg, route intravenous; details: in vivo
[4] = Drug level in tumor of human MDA-MB-361 cells xenografted nude mouse at 25 mg/kg, iv after 8 hrs; assay type: ADME, organism-based, Neoplasm; design: dose 25 mg/kg, route intravenous; details: read-out: Drug uptake

In the case of `CC(C)N1CCN(C(=O)c2ccc(NC(=O)Nc3ccc(-c4nc(C5CCOCC5)nc(N5C6CCC5COC6)n4)cc3)cc2)CC1`, the AUC(0-inf) [1] is reported as 16700 ng·h/mL, the concentration at 8 h [2] is reported as 2160 ng/mL and the Vd [3] is reported as 1.3 L/kg. It also gave a concentration at 8 h [4] of 2470 ng/mL.

— ChEMBL document CHEMBL1156955 (Bioorg Med Chem Lett, 2010)
